Patent publication US7014844B2, “Lightening compositions and methods of use” (Avon Products, Inc., priority 2001, dated 2006)

What was measured:
tyrosinase = target: T1, tyrosinase (Mus musculus, UniProt P11344); test: Tyrosinase assay; type: biochemical; details: 0.05 wt %; mouse melanoma cell extract; DOPA substrate; 475 nm
T1 construct: Tyrosinase was assayed spectrophotometrically by adding up to 0.1 ml cell extract; endogenous in cells
T1 sequence (P11344 19-533): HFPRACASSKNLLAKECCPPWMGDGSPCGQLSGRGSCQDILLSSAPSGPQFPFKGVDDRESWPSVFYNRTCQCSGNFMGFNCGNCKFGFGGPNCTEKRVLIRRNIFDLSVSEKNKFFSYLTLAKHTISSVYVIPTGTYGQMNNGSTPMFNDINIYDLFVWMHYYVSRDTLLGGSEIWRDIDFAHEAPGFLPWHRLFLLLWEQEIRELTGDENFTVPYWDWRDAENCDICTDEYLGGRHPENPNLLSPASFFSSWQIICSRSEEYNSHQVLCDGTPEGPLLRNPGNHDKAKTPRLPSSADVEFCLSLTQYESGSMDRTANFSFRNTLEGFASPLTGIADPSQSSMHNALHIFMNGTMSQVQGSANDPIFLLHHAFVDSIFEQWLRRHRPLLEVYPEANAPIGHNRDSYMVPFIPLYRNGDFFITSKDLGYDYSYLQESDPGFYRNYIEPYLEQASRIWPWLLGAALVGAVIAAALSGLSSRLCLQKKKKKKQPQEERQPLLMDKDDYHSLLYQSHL
Experimental: A tyrosinase assay was performed according to the method outlined in Chakraborty et al., 1989, Melanogenic regulatory factors in coated vesicles from melanoma cells, J. Invest. Dermatol. 93: 616–620. Specifically, mouse melanoma cells were dissolved with the addition of 0.1 M sodium phosphate buffer, pH 6.8, containing Triton X-100 (1% vol/vol), at a ratio of 1-5×10^6 cells/ml. After 10 minutes on ice, the extracts were centrifuged at 4° C. (10,000 g, for 10 minutes) and the supernatant fractions were assayed for tyrosinase. Tyrosinase was assayed spectrophotometrically by adding up to 0.1 ml cell extract to 0.2 ml of a solution of freshly prepared DOPA (˜0.5 mg/ml), in a total volume of 0.5 ml of 0.1 M sodium phosphate buffer, pH 6.8. Reactions were carried out at 37° C. in plastic cuvettes, and the appearance of absorption at 475 nm was followed.

DOPAchrome tautomerase = target: T2, DOPAchrome tautomerase (Mus musculus, UniProt P29812); test: DOPAchrome tautomerase (DCT) assay; type: biochemical; details: 0.05 wt %; cell extract; phenylthiourea 1 mM; 475 nm
T2 construct: DCT was assayed spectrophotometrically by adding up to 0.1 ml cell extract; endogenous in cells
T2 sequence (P29812 24-517): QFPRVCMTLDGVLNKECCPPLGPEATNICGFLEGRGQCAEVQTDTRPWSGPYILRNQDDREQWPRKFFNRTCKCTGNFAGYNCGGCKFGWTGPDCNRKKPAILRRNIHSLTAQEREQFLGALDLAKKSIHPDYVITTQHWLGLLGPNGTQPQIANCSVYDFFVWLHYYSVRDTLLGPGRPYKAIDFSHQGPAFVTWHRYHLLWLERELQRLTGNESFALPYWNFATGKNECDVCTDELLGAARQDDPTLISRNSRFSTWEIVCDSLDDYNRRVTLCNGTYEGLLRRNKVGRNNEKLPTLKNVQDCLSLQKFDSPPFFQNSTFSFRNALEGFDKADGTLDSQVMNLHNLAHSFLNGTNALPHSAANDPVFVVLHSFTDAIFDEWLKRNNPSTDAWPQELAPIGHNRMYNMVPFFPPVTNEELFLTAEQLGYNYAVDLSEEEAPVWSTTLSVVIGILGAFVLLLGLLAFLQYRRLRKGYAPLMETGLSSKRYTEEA
Experimental: DOPAchrome tautomerase (DCT) activity was assayed according to the method disclosed in Chakraborty et al., 1998, Effect of arbutin on melanogenic proteins in human melanocytes, Pigment Cell Res. 11: 206–212. Specifically, ice-cold DOPA (0.5 mg per ml of 0.1 M sodium phosphate buffer, pH 6.8) was mixed with Ag2O (30 mg Ag2O: 1 mg DOPA) for about 1 minute and filtered through a 0.22 μm Millipore filter. DCT was assayed spectrophotometrically by adding up to 0.1 ml cell extract to 0.5 ml of a solution of freshly prepared DOPAchrome (˜0.5 mg/ml). Reactions were carried out at room temperature in plastic cuvettes, and the disappearance of absorption at 475 nm was followed. Phenylthiourea (1 mM) was added to the reaction mixture, because the presence of tyrosinase in the cell extract can interfere with the assay. The percentage conversion of DOPAchrome was calculated per mg of protein extract and normalized against the control.

DHICA polymerase = DHICA polymerase assay; type: biochemical; details: 0.05 wt %; wheat germ agglutinin eluate; 4 hours; 400 nm
Experimental: A DHICA polymerase assay was performed according to the method disclosed in Chakraborty et al., 1996, Polymerization of 5, 6-dihydroxyindole-2-Carboxylic acid to melanin by the pmell7/silver locus protein, Eur. J. Biochem. 236: 180–188. Specifically, the cell extract (0.5 ml, 150–200 μg protein) was passed through a wheat germ agglutinin column (1 ml bed volume) equilibrated with lysis buffer. The bound material was eluted with 0.5 ml 1M N-acetyl glucosamine, which contains crude DHICA polymerization factor and other melanogenic proteins. A reaction mixture of 0.5 ml containing either the enzyme preparation to be measured (20 μg protein from wheat germ agglutinin eluates) or the appropriate buffer blank, DHICA (0.5 mM), and 100 mM sodium phosphate buffer, pH 7.0. Phenylthiourea was also included to inhibit endogenous tyrosinase activity in the preparation.
Spectrophotomeric reading of the absorbance of the reaction mixture was taken at T=0 and T=4 hours time points at 400 nm. […] An increase in absorbance over that seen in blank tubes was defined as specific DHICA polymerization factor activity.

[1] = test system: Reconstituted Human Epidermis (keratinocytes and Type IV melanocytes); test: Reconstructed Pigmented Epidermal Tissue Assay; type: cell-based; details: 0.1 wt %; treated 14 days; absorbance at 490 nm
Experimental: A composition containing 0.1 wt % N, N, S (tris) carboxylmethyl cysteamine was tested in a Reconstructed Pigmented Epidermal Tissue Assay. Reconstituted Human Epidermis (tissue) consisting of keratinocytes and Type IV (Fitzpatrick scale) melanocytes (Skin Ethic, France) were grown in maintenance medium obtained from the tissue supplier. This model consists of melanocytes and keratinocytes and the pigmentation of the skin-equivalent is due to melanin. The tissue remained viable through the course of the experimental treatment and actively synthesized and transferred melanin. The skin equivalents were treated for 14 days with the active materials of the present invention and a measure of melanin was obtained by measuring absorbance of the tissue at 490 nm. All studies were conducted in 6-well tissue culture dishes (Falcon), at 37° C. and 5% CO2. All test articles were dissolved in medium. Tissues were fed 1 ml of medium with the active material or medium alone was used as the control. […] After 14 days the tissues were transferred to a 24-well tissue culture dish (Falcon), and pigmentation was assessed using a Packard microplate reader at 490 nm. […] A control baseline reading had been taken on day 2 after the models had equilibrated and used as a baseline tissue pigmentation value. The baseline reading was subtracted from the final readings to eliminate inherent absorbance by the tissue. […]

Compound: O=C(O)CSCCN(CC(=O)O)CC(=O)O [N, N, S (tris) carboxylmethyl cysteamine]
- average decrease in tyrosinase conversion as compared to the control (tyrosinase): 36%
- average decrease in DOPAchrome conversion as compared to the control (DOPAchrome tautomerase): 65%
- average decrease in DHICA Polymerase conversion compared to the control (DHICA polymerase): 58%
- reduction of reconstructed epidermal tissue pigmentation in comparison to control tissue [1]: about 40%
